The structures appear in SMILES notation.

Experimental findings from patent US9981976B2, “Piperidine substituted pyrazolo[1,5-A]pyrimidine derivatives with inhibitory activity on the replication of the respiratory syncytial virus (RSV)” (priority 2014, dated 2018) are described below.

The subject of one data set is HeLa cells. The data set can be described thus: Cytotoxicity in HeLa cells, ATP content (ATPlite kit). As to conditions: three days incubation, CC50 = 50% concentration for cytotoxicity. (In general: Cellular ATP, detected with luciferase, serves as a proxy for viable cell number.)
The test system of the next data set is rgRSV224 virus. The data set is described as follows: microbe, parasite or virus in culture. The data set is classed as cell-based, respiratory syncytial virus (RSV). As to conditions: human respiratory syncytial virus, HeLa, 72 h, read-out: RSV HELA pEC50, rgRSV224 virus (MOI=1), HeLa cells, GFP expression three days post-virus exposure (converted).

Protocol for HeLa cells: Black 384-well clear-bottom microtiter plates (Corning, Amsterdam, The Netherlands) were filled via acoustic drop ejection using the echo liquid handler (Labcyte, Sunnyvale, Calif.). 200 nL of compound stock solutions (100% DMSO) were transferred to the assay plates. 9 serial 4-fold dilutions of compound were made, creating per quadrant the same compound concentration. The assay was initiated by adding 10 μL of culture medium to each well (RPMI medium without phenol red, 10% FBS-heat inactivated, 0.04% gentamycin (50 mg/mL). All addition steps are done by using a multidrop dispenser (Thermo Scientific, Erembodegem, Belgium). Next, rgRSV224 virus (MOI=1) diluted in culture medium was added to the plates. rgRSV224 virus is an engineered virus that includes an additional GFP gene (Hallak L K, Spillmann D, Collins P L, Peeples M E. Glycosaminoglycan sulfation requirements for respiratory syncytial virus infection; Journal of virology (2000), 74(22), 10508-13) and was in-licensed from the NIH (Bethesda, Md., USA). Finally, 20 μL of a HeLa cell suspension (3,000 cells/well) were plated. Medium, virus- and mock-infected controls were included in each test. The wells contain 0.05% DMSO per volume. Cells were incubated at 37° C. in a 5% CO2 atmosphere. Three days post-virus exposure, viral replication was quantified by measuring GFP expression in the cells by an in house developed MSM laser microscope (Tibotec, Beerse, Belgium). The EC50 was defined as the 50% inhibitory concentration for GFP expression. In parallel, compounds were incubated for three days in a set of white 384-well microtiter plates (Corning) and the cytotoxicity of compounds in HeLa cells was determined by measuring the ATP content of the cells using the ATPlite kit (Perkin Elmer, Zaventem, Belgium) according to the manufacturer's instructions. The CC50 was defined as the 50% concentration for cytotoxicity.

For the compound `Cc1cccc2ncnc(N3CCCCC3c3cc4nc(N5CCC5)cc(N5CCOCC5)n4n3)c12` (stereo not shown) [P17, 4-(5-(azetidin-1-yl)-2-(1-(5-methylquinazolin-4-yl)piperidin-2-yl)-pyrazolo[1,5-a]pyrimidin-7-yl)morpholine], the “SI TOX HELA” value with HeLa cells is on record as 4.4. Also, the EC50 in the data set on rgRSV224 virus is 3.98 nM.
As for `Cc1cccc2ncnc(N3CCCCC3c3cc4nc(N5CCC5)cc(N5CCN(S(C)(=O)=O)CC5)n4n3)c12` (stereo not shown) [P55, 4-(2-(5-(azetidin-1-yl)-7-(4-(methylsulfonyl)piperazin-1-yl)pyrazolo-[1,5-a]pyrimidin-2-yl)piperidin-1-yl)-5-methylquinazoline], the “SI TOX HELA” value with HeLa cells amounted to 4.3. The EC50 with rgRSV224 virus was 15.8 nM.
`Cc1ccc2nc(NS(C)(=O)=O)nc(N3CCCC[C@@H]3c3cc4nc(N5CCC5)cc(N5CCOCC5)n4n3)c2c1` [P7, (R)—N-(4-(2-(5-(azetidin-1-yl)-7-morpholinopyrazolo[1,5-a]pyrimidin-2-yl)-piperidin-1-yl)-6-methylquinazolin-2-yl)methanesulfonamide]: the “SI TOX HELA” value in the data set with HeLa cells was <4. Further, in the data set with rgRSV224 virus, the EC50 is 2000 nM.
Taken in the same sequence, the figures for `CCc1cccc2ncnc(N3CCCCC3c3cc4nc(N5CCC5)cc(N5CCOCC5)n4n3)c12` (stereo not shown) [P58, 4-(5-(azetidin-1-yl)-2-(1-(5-ethylquinazolin-4-yl)piperidin-2-yl)-pyrazolo[1,5-a]pyrimidin-7-yl)morpholine] were <4 and 501 nM.
On to `Cc1cn2nc(C3CCCCN3c3nc(Cl)nc4cccc(C)c34)cc2nc1N1CC(O)C1` (stereo not shown) [P40, 1-(2-(1-(2-chloro-5-methylquinazolin-4-yl)piperidin-2-yl)-6-methylpyrazolo[1,5-a]pyrimidin-5-yl)azetidin-3-ol], for which the “SI TOX HELA” value in the data set on HeLa cells turned out to be 4.7. Also, the EC50 in the data set with rgRSV224 virus is 158 nM.
Take `Cc1ccc2ncnc(N3CCCC[C@H]3c3cc4nc(N5CCC(N)C5)ccn4n3)c2c1` (stereo in doubt) [P51, (S)-1-(2-((S)-1-(6-methylquinazolin-4-yl)piperidin-2-yl)pyrazolo-[1,5-a]pyrimidin-5-yl)pyrrolidin-3-amine]: in the data set on HeLa cells, the “SI TOX HELA” value is 4.3. In the data set on rgRSV224 virus, the EC50 was 316 nM.
`Cc1cccc2ncnc(N3CCCCC3c3cc4nc(N5CCC5)cc(N5CCNCC5)n4n3)c12` (stereo not shown) [P53, 4-(2-(5-(azetidin-1-yl)-7-(piperazin-1-yl)pyrazolo[1,5-a]pyrimidin-2-yl)piperidin-1-yl)-5-methylquinazoline]: the “SI TOX HELA” value in the data set with HeLa cells was 4.6. In the data set with rgRSV224 virus, the EC50 is 50.1 nM.
In the same order, the values of `Cc1cn2nc([C@@H]3CCCCN3c3ncnc4cccc(C)c34)cc2nc1N1CC(O)C1` [P25, (S)-1-(6-methyl-2-(1-(5-methylquinazolin-4-yl)-piperidin-2-yl)pyrazolo[1,5-a]pyrimidin-5-yl)azetidin-3-ol] are <4.6 and 31.6 nM.
Taken in the same sequence, the figures for `Clc1cccc2ncnc(N3CCCCC3c3cc4nc(N5CCC5)cc(N5CCOCC5)n4n3)c12` (stereo not shown) [P35, 4-(5-(azetidin-1-yl)-2-(1-(5-chloroquinazolin-4-yl)piperidin-2-yl)-pyrazolo[1,5-a]pyrimidin-7-yl)morpholine] were 4.4 and 63.1 nM.
In the same order, the values of `Cc1ccc2nc(NS(C)(=O)=O)nc(N3CCCCC3c3cc4nc(N5CCC5)cc(N5CCOCC5)n4n3)c2c1` (stereo not shown) [P6, N-(4-(2-(5-(azetidin-1-yl)-7-morpholinopyrazolo[1,5-a]pyrimidin-2-yl)piperidin-1-yl)-6-methylquinazolin-2-yl)methanesulfonamide] are <4.0 and 5.01 nM.
Regarding `Cc1cn2nc(C3CCCCN3c3ncnc4cccc(C)c34)cc2nc1N1CC(N)C1` (stereo not shown) [P26, 1-(6-methyl-2-(1-(5-methylquinazolin-4-yl)piperidin-2-yl)pyrazolo-[1,5-a]pyrimidin-5-yl)azetidin-3-amine], the “SI TOX HELA” value in the data set on HeLa cells was determined as 4.3. Besides, the EC50 in the data set with rgRSV224 virus was 25.1 nM.
In the same order, the values of `Cc1ccc2nc(NS(C)(=O)=O)nc(N3CCCC[C@H]3c3cc4nc(N5CCC5)cc(N5CCOCC5)n4n3)c2c1` [P8, (S)—N-(4-(2-(5-(azetidin-1-yl)-7-morpholinopyrazolo[1,5-a]pyrimidin-2-yl)piperidin-1-yl)-6-methylquinazolin-2-yl)methanesulfonamide] are <4 and 7.94 nM.
With `Cc1ccc2ncnc(N3CCCC[C@@H]3c3cc4nc(N5CC[C@H](N)C5)ccn4n3)c2c1` [P50, (S)-1-(2-((R)-1-(6-methylquinazolin-4-yl)piperidin-2-yl)pyrazolo-[1,5-a]pyrimidin-5-yl)pyrrolidin-3-amine], in the data set on HeLa cells, the “SI TOX HELA” value is 4.3. Besides, the EC50 with rgRSV224 virus was 631 nM.
Taken in the same sequence, the figures for `Cc1nc2c(N3CCCCC3c3cc4nc(N5CCC5)cc(N5CCOCC5)n4n3)ncnc2o1` (stereo not shown) [P65, 7-(2-(5-(azetidin-1-yl)-7-morpholinopyrazolo[1,5-a]pyrimidin-2-yl)-piperidin-1-yl)-2-methyloxazolo[5,4-d]pyrimidine] were <4.6 and 15.8 nM.
In the case of `Cc1cccc2ncnc(N3CCCCC3c3cc4nc(N5CCC5)cc(N5CCN(C(=O)OC(C)(C)C)CC5)n4n3)c12` (stereo not shown) [P52, tert-butyl4-(5-(azetidin-1-yl)-2-(1-(5-methylquinazolin-4-yl)piperidin-2-yl)pyrazolo[1,5-a]pyrimidin-7-yl)piperazine-1-carboxylate], the “SI TOX HELA” value with HeLa cells came to 4.7. In the data set on rgRSV224 virus, the EC50 is 79.4 nM.
Taken in the same sequence, the figures for `Cc1ccc2ncnc(N3CCCCC3c3cc4nc(N5CCC5)cc(N5CCOCC5)n4n3)c2c1` (stereo not shown) [P4, 4-(5-(azetidin-1-yl)-2-(1-(6-methylquinazolin-4-yl)piperidin-2-yl)-pyrazolo[1,5-a]pyrimidin-7-yl)morpholine] were <4 and 158 nM.
Taken in the same sequence, the figures for `Cc1cccc2nc(C(=O)NS(C)(=O)=O)nc(N3CCCCC3c3cc4nc(N5CCC5)cc(N5CCOCC5)n4n3)c12` (stereo not shown) [P69, 4-(2-(5-(azetidin-1-yl)-7-morpholinopyrazolo[1,5-a]pyrimidin-2-yl)-piperidin-1-yl)-5-methyl-N-(methylsulfonyl)quinazoline-2-carboxamide] were <4 and 316 nM.
Taken in the same sequence, the figures for `Clc1ccc2ncnc(N3CCCCC3c3cc4nc(N5CCC5)cc(N5CCOCC5)n4n3)c2c1` (stereo not shown) [P1, 4-(5-(azetidin-1-yl)-2-(1-(6-chloroquinazolin-4-yl)piperidin-2-yl)-pyrazolo[1,5-a]pyrimidin-7-yl)morpholine] were 4.4 and 794 nM.
Regarding `Cc1cccc2ncnc(N3CCCC[C@@H]3c3cc4nc(N5CCC5)cc(N5CCOCC5)n4n3)c12` [P18, (R)-4-(5-(azetidin-1-yl)-2-(1-(5-methylquinazolin-4-yl)piperidin-2-yl)-pyrazolo[1,5-a]pyrimidin-7-yl)morpholine], the “SI TOX HELA” value in the data set on HeLa cells is on record as <4.3. Also, the EC50 in the data set with rgRSV224 virus is > 1000 nM.
With `Cc1ccc2nc(C)nc(N3CCCC[C@@H]3c3cc4nc(N5CC(O)C5)c(C)cn4n3)c2c1` [P44, (R)-1-(2-(1-(2,6-dimethyl-quinazolin-4-yl)piperidin-2-yl)-6-methylpyrazolo[1,5-a]pyrimidin-5-yl)azetidin-3-ol], the “SI TOX HELA” value in the data set with HeLa cells came out at 4.2. The EC50 in the data set on rgRSV224 virus was 794 nM.
